From patent US20120101083A1, “S1P1 AGONISTS COMPRISING A BICYCLIC N-CONTAINING RING” (GLAXO GROUP LIMITED, priority 2009, published 2012)
Counter-ions that a name gives are not always drawn.

target: T1, S1P1 receptor (S1P1 expressing RH7777 membranes) (Homo sapiens, UniProt P21453); assay: S1P1 GTPγS assay; type: biochemical; conditions: S1P1 GTPγS assay, first format, [35S]-GTPγS 0.5 nM
T1 construct: expressed in transfected cells; host or cells: RH7777 cells (membranes)
Experimental: The potencies and efficacies of the compounds of this invention for the S1P1 receptor can be determined by GTPγS assay performed on the human cloned receptor as described herein.
Membrane preparation for S1P1 GTPγS assay
All steps were performed at 4° C. Cells were homogenised within a glass Waring blender for 2 bursts of 15 secs in 200 mls of buffer (50 mM HEPES, 1 mM leupeptin, 25 μg/ml bacitracin, 1 mM EDTA, 1 mM PMSF, 2 μM pepstatin A). The blender was plunged into ice for 5 mins after the first burst and 10-40 mins after the final burst to allow foam to dissipate. The material was then spun at 500 g for 20 mins and the supernatant spun for 36 mins at 48,000 g. The pellet was resuspended in the same buffer as above but without PMSF and pepstatin A. The material was then forced through a 0.6 mm needle, made up to the required volume, (usually x4 the volume of the original cell pellet), aliquoted and stored frozen at −80° C.
S1P1 expressing RH7777 membranes (1.5 μg/well) membranes (1.5 μg/well) were homogenised by passing through a 23 G needle. These were then adhered to WGA-coated SPA beads (0.125 mg/well) in assay buffer (HEPES 20 mM, MgCl2 10 mM, NaCl 100 mM and pH adjusted to 7.4 using KOH 5M). GDP 10 μM FAC and saponin 90 μg/ml FAC were also added
After 30 minutes precoupling on ice, the bead and membrane suspension was dispensed into white Greiner polypropylene LV 384-well plates (5 μl/well), containing […] of compound. 5 μl/well [^35S]-GTPγS (0.5 nM for S1P1 or 0.3 nM for S1P3 final radioligand concentration) made in assay buffer was then added to the plates. The final assay cocktail (10.1 μl) was then sealed, spun on a centrifuge, then read immediately on a Viewlux instrument.
Alternatively, after 30 minutes precoupling on ice, the bead and membrane suspension was mixed with ^35S]-GTPγS (0.5 nM final radioligand concentration) in assay buffer (HEPES 20 mM, MgCl2 10 mM, NaCl 100 mM and pH adjusted to 7.4 using KOH 5M) in a 1:1 ratio. The bead, membrane and radioligand suspension was dispensed into white Greiner polypropylene low volume 384-well plates (10 μl/well), containing 0.1 μl of a solution of test compound in 100% DMSO. The final assay cocktail (10.1 μl) was then sealed, spun on a centrifuge, then read immediately on a Viewlux instrument.

T1 sequence (P21453 whole entry): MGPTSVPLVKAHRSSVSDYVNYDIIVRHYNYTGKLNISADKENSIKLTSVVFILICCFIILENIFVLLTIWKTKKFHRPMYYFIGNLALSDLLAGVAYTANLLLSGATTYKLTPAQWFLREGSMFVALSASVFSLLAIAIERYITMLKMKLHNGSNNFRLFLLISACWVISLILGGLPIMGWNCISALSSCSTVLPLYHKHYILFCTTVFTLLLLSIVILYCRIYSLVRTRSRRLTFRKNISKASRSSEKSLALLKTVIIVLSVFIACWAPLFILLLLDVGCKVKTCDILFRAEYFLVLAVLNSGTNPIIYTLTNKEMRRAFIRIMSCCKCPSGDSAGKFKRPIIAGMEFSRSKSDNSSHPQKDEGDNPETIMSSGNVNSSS

EC50	Compound
2000 nM	Cc1c(-c2nnc(-c3ccc(OC(C)C)c(C#N)c3)s2)ccc2c1CCN(CC(O)CO)C2 (stereo not drawn) [Example 18, 5-{5-[2-(2,3-Dihydroxypropyl)-5-methyl-1,2,3,4-tetrahydro-6-isoquinolinyl]-1,3,4-thiadiazol-2-yl}-2-[(1-methylethyl)oxy]benzonitrile]

same assay, conditions: tested in one of the above S1P1 assays (two GTPγS formats)

EC50	Compound
≤ 100 nM	CC(C)Oc1ncc(-c2nc(-c3ccc4c(c3)CCN(CC(O)CO)CC4)no2)cc1C#N (stereo in doubt) [Example 97, 5-(3-{3-[(2R)-2,3-dihydroxypropyl]-2,3,4,5-tetrahydro-1H-3-benzazepin-7-yl}-1,2,4-oxadiazol-5-yl)-2-[(1-methylethyl)oxy]-3-pyridinecarbonitrile]
≤ 100 nM	CNC(=O)CCN1CCc2c(ccc(-c3nnc(-c4ccc(OC(C)C)c(C#N)c4)s3)c2C)C1 [Example 11, 3-[6-(5-{3-Cyano-4-[(1-methylethyl)oxy]phenyl}-1,3,4-thiadiazol-2-yl)-5-methyl-3,4-dihydro-2(1H)-isoquinolinyl]-N-methylpropanamide]
≤ 100 nM	Cc1c(-c2nnc(-c3ccc(OC(C)C)c(C#N)c3)s2)ccc2c1CCN(CCC(=O)N(C)C)C2 [Example 12, 3-[6-(5-{3-Cyano-4-[(1-methylethyl)oxy]phenyl}-1,3,4-thiadiazol-2-yl)-5-methyl-3,4-dihydro-2(1H)-isoquinolinyl]-N,N-dimethylpropanamide]
≤ 1000 nM	Cc1c(-c2nnc(-c3ccc(OC(C)C)c(C#N)c3)s2)ccc2c1CCN(CCCC(N)=O)C2 [Example 13, 4-[6-(5-{3-Cyano-4-[(1-methylethyl)oxy]phenyl}-1,3,4-thiadiazol-2-yl)-5-methyl-3,4-dihydro-2(1H)-isoquinolinyl]butanamide]
≤ 1000 nM	CNC(=O)CCCN1CCc2c(ccc(-c3nnc(-c4ccc(OC(C)C)c(C#N)c4)s3)c2C)C1 [Example 14, 4-[6-(5-{3-Cyano-4-[(1-methylethyl)oxy]phenyl}-1,3,4-thiadiazol-2-yl)-5-methyl-3,4-dihydro-2(1H)-isoquinolinyl]-N-methylbutanamide]
≤ 100 nM	Cc1c(-c2nnc(-c3ccc(OC(C)C)c(C#N)c3)s2)ccc2c1CCN(CCO)C2 [Example 15, 5-{5-[2-(2-Hydroxyethyl)-5-methyl-1,2,3,4-tetrahydro-6-isoquinolinyl]-1,3,4-thiadiazol-2-yl}-2-[(1-methylethyl)oxy]benzonitrile]
≤ 1000 nM	Cc1c(-c2nnc(-c3ccc(OC(C)C)c(C#N)c3)s2)ccc2c1CCN(CCCO)C2 [Example 16, 5-{5-[2-(3-Hydroxypropyl)-5-methyl-1,2,3,4-tetrahydro-6-isoquinolinyl]-1,3,4-thiadiazol-2-yl}-2-[(1-methylethyl)oxy]benzonitrile]
≤ 1000 nM	COCCN1CCc2c(ccc(-c3nnc(-c4ccc(OC(C)C)c(C#N)c4)s3)c2C)C1 [Example 17, 2-[(1-Methylethyl)oxy]-5-(5-{5-methyl-2-[2-(methyloxy)ethyl]-1,2,3,4-tetrahydro-6-isoquinolinyl}-1,3,4-thiadiazol-2-yl)benzonitrile hydrochloride]
> 10000 nM	Cc1c(-c2nnc(-c3ccc(OC(C)C)c(C#N)c3)s2)ccc2c1CCN(CC(O)CO)C2 (stereo not drawn) [Example 18, 5-{5-[2-(2,3-Dihydroxypropyl)-5-methyl-1,2,3,4-tetrahydro-6-isoquinolinyl]-1,3,4-thiadiazol-2-yl}-2-[(1-methylethyl)oxy]benzonitrile]
≤ 100 nM	CC(C)Oc1ccc(-c2nc(-c3ccc4c(c3)CCN(CCO)CC4)no2)cc1C#N [Example 19, 5-{3-[3-(2-Hydroxyethyl)-2,3,4,5-tetrahydro-1H-3-benzazepin-7-yl]-1,2,4-oxadiazol-5-yl}-2-[(1-methylethyl)oxy]benzonitrile]
≤ 100 nM	CC(C)Oc1ccc(-c2nc(-c3ccc4c(c3)CCN(CCCO)CC4)no2)cc1C#N [Example 20, 5-{3-[3-(3-Hydroxypropyl)-2,3,4,5-tetrahydro-1H-3-benzazepin-7-yl]-1,2,4-oxadiazol-5-yl}-2-[(1-methylethyl)oxy]benzonitrile]
≤ 100 nM	COCCN1CCc2ccc(-c3noc(-c4ccc(OC(C)C)c(C#N)c4)n3)cc2CC1 [Example 21, 2-[(1-Methylethyl)oxy]-5-(3-{3-[2-(methyloxy)ethyl]-2,3,4,5-tetrahydro-1H-3-benzazepin-7-yl}-1,2,4-oxadiazol-5-yl)benzonitrile]
≤ 100 nM	CC(C)Oc1ccc(-c2nc(-c3ccc4c(c3)CCN(CC(O)CO)CC4)no2)cc1C#N (stereo not drawn) [Example 27, 5-{3-[3-(2,3-Dihydroxypropyl)-2,3,4,5-tetrahydro-1H-3-benzazepin-7-yl]-1,2,4-oxadiazol-5-yl}-2-[(1-methylethyl)oxy]benzonitrile]
≤ 1000 nM	CC(C)Oc1ccc(-c2nnc(-c3ccc4c(c3)CCN(CCO)CC4)s2)cc1C#N [Example 28, 5-{5-[3-(2-Hydroxyethyl)-2,3,4,5-tetrahydro-1H-3-benzazepin-7-yl]-1,3,4-thiadiazol-2-yl}-2-[(1-methylethyl)oxy]benzonitrile hydrochloride]
≤ 1000 nM	CC(C)Oc1ccc(-c2nnc(-c3ccc4c(c3)CCN(CCCO)CC4)s2)cc1C#N [Example 29, 5-{5-[3-(3-Hydroxypropyl)-2,3,4,5-tetrahydro-1H-3-benzazepin-7-yl]-1,3,4-thiadiazol-2-yl}-2-[(1-methylethyl)oxy]benzonitrile]
≤ 1000 nM	COCCN1CCc2ccc(-c3nnc(-c4ccc(OC(C)C)c(C#N)c4)s3)cc2CC1 [Example 30, 2-[(1-Methylethyl)oxy]-5-(5-{3-[2-(methyloxy)ethyl]-2,3,4,5-tetrahydro-1H-3-benzazepin-7-yl}-1,3,4-thiadiazol-2-yl)benzonitrile hydrochloride]
≤ 1000 nM	CC(C)Oc1ccc(-c2nc(-c3cccc4c3CCN(CC(N)=O)CC4)no2)cc1C#N [Example 31, 2-[6-(5-{3-Cyano-4-[(1-methylethyl)oxy]phenyl}-1,2,4-oxadiazol-3-yl)-1,2,4,5-tetrahydro-3H-3-benzazepin-3-yl]acetamide]
≤ 1000 nM	CC(C)Oc1ccc(-c2nc(-c3cccc4c3CCN(CCC(N)=O)CC4)no2)cc1C#N [Example 32, 3-[6-(5-{3-Cyano-4-[(1-methylethyl)oxy]phenyl}-1,2,4-oxadiazol-3-yl)-1,2,4,5-tetrahydro-3H-3-benzazepin-3-yl]propanamide]
≤ 100 nM	CC(C)Oc1ccc(-c2nc(-c3cccc4c3CCN(CCCO)CC4)no2)cc1C#N [Example 33, 5-{3-[3-(3-Hydroxypropyl)-2,3,4,5-tetrahydro-1H-3-benzazepin-6-yl]-1,2,4-oxadiazol-5-yl}-2-[(1-methylethyl)oxy]benzonitrile]
≤ 100 nM	CC(C)Oc1ccc(-c2nc(-c3cccc4c3CCN(CCO)CC4)no2)cc1C#N [Example 34, 5-{3-[3-(2-Hydroxyethyl)-2,3,4,5-tetrahydro-1H-3-benzazepin-6-yl]-1,2,4-oxadiazol-5-yl}-2-[(1-methylethyl)oxy]benzonitrile]
≤ 100 nM	CC(C)Oc1ccc(-c2nc(-c3cccc4c3CCN(CC(O)CO)CC4)no2)cc1C#N (stereo not drawn) [Example 35, 5-{3-[3-(2,3-Dihydroxypropyl)-2,3,4,5-tetrahydro-1H-3-benzazepin-6-yl]-1,2,4-oxadiazol-5-yl}-2-[(1-methylethyl)oxy]benzonitrile hydrochloride]
≤ 1000 nM	CC(C)Oc1ccc(-c2nnc(-c3cccc4c3CCN(CCO)C4)s2)cc1C#N [Example 38, 5-{5-[2-(2-hydroxyethyl)-1,2,3,4-tetrahydro-5-isoquinolinyl]-1,3,4-thiadiazol-2-yl}-2-[(1-methylethyl)oxy]benzonitrile]
> 10000 nM	CNC(=O)CCN1CCc2c(cccc2-c2nnc(-c3ccc(OC(C)C)c(C#N)c3)s2)C1 [Example 45, 3-[5-(5-{3-cyano-4-[(1-methylethyl)oxy]phenyl}-1,3,4-thiadiazol-2-yl)-3,4-dihydro-2(1H)-isoquinolinyl]-N-methylpropanamide]
≤ 1000 nM	CC(C)Oc1ccc(-c2nnc(-c3cccc4c3CCN(CCC(=O)N(C)C)C4)s2)cc1C#N [Example 46, 3-[5-(5-{3-cyano-4-[(1-methylethyl)oxy]phenyl}-1,3,4-thiadiazol-2-yl)-3,4-dihydro-2(1H)-isoquinolinyl]-N,N-dimethylpropanamide]
≤ 100 nM	CC(C)Nc1ccc(-c2nc(-c3ccc4c(c3)CCN(CC(O)CO)CC4)no2)cc1C#N (stereo not drawn) [Example 49, 5-{3-[3-(2,3-dihydroxypropyl)-2,3,4,5-tetrahydro-1H-3-benzazepin-7-yl]-1,2,4-oxadiazol-5-yl}-2-[(1-methylethyl)amino]benzonitrile]
≤ 100 nM	CCCNc1ccc(-c2nc(-c3ccc4c(c3)CCN(CC(O)CO)CC4)no2)cc1C#N (stereo not drawn) [Example 50, 5-{3-[3-(2,3-dihydroxypropyl)-2,3,4,5-tetrahydro-1H-3-benzazepin-7-yl]-1,2,4-oxadiazol-5-yl}-2-(propylamino)benzonitrile]
